Experimental data as given in PubChem BioAssay (NCI).
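Tested at 5 concentrations; 48 h exposure; 96-well plates; endpoints linearly interpolated, else capped at highest concentration. At the GI50, growth is halved. TGI: total growth inhibition.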

Assays:
Experiment in all cases: NCI-60 cell line screen, 48 h
CCRF-CEM leukemia = system: CCRF-CEM leukemia
SW-620 colon = system: SW-620 colon
OVCAR-5 ovarian = system: OVCAR-5 ovarian
SK-MEL-28 melanoma = system: SK-MEL-28 melanoma
NCI-H226 lung = system: NCI-H226 lung
RPMI-8226 leukemia = system: RPMI-8226 leukemia
LOX IMVI melanoma = system: LOX IMVI melanoma
MOLT-4 leukemia = system: MOLT-4 leukemia
RXF 393 renal = system: RXF 393 renal
PC-3 prostate = system: PC-3 prostate
DU-145 prostate = system: DU-145 prostate

## COc1cc2c(oc(=O)c3c4occc4cc(OC)c23)c2cccc(O)c12
CCRF-CEM leukemia
  TGI: > 100 µM
SW-620 colon
  TGI: > 100 µM
OVCAR-5 ovarian
  TGI: > 100 µM
SK-MEL-28 melanoma
  TGI: > 100 µM
NCI-H226 lung
  TGI: > 100 µM
RPMI-8226 leukemia
  TGI: > 100 µM
LOX IMVI melanoma
  TGI: > 100 µM
MOLT-4 leukemia
  TGI: > 100 µM
RXF 393 renal
  TGI: > 100 µM

## CN(C)C(=O)C(F)(F)C(c1ccccc1Br)C1C(=O)N(C)C(=O)N(C)C1=O (stereo unspecified)
CCRF-CEM leukemia
  TGI: > 100 µM
SW-620 colon
  TGI: > 100 µM
OVCAR-5 ovarian
  TGI: > 100 µM
PC-3 prostate
  TGI: > 100 µM
SK-MEL-28 melanoma
  TGI: > 100 µM
DU-145 prostate
  TGI: > 100 µM
NCI-H226 lung
  TGI: > 100 µM
RPMI-8226 leukemia
  TGI: > 100 µM
LOX IMVI melanoma
  TGI: > 100 µM
RXF 393 renal
  TGI: > 100 µM

## CCOC(=O)c1ccc(N(CCOS(C)(=O)=O)CCOS(C)(=O)=O)cc1
CCRF-CEM leukemia
  TGI: 77.6 µM
SW-620 colon
  TGI: > 100 µM
OVCAR-5 ovarian
  TGI: > 100 µM
PC-3 prostate
  TGI: > 100 µM
SK-MEL-28 melanoma
  TGI: > 100 µM
DU-145 prostate
  TGI: 47 µM
RPMI-8226 leukemia
  TGI: > 100 µM
LOX IMVI melanoma
  TGI: > 100 µM
MOLT-4 leukemia
  TGI: 48.1 µM
RXF 393 renal
  TGI: 38.5 µM

## CCOc1ccc(C2=NN(CC)C(=O)C(C3C(=O)N(c4ccccc4)N=C3C)C2)cc1 (stereo unspecified)
CCRF-CEM leukemia
  TGI: > 100 µM
SW-620 colon
  TGI: > 100 µM
OVCAR-5 ovarian
  TGI: > 100 µM
SK-MEL-28 melanoma
  TGI: > 100 µM
NCI-H226 lung
  TGI: > 100 µM
RPMI-8226 leukemia
  TGI: > 100 µM
LOX IMVI melanoma
  TGI: > 100 µM
MOLT-4 leukemia
  TGI: > 100 µM
RXF 393 renal
  TGI: > 100 µM

## O=C(/C=C/c1ccc(OCc2ccccc2)cc1)NCc1ccc(C(=O)NCCc2ccccc2)cc1
CCRF-CEM leukemia
  TGI: > 100 µM
SW-620 colon
  TGI: > 100 µM
OVCAR-5 ovarian
  TGI: > 100 µM
PC-3 prostate
  TGI: > 100 µM
SK-MEL-28 melanoma
  TGI: > 100 µM
DU-145 prostate
  TGI: > 100 µM
NCI-H226 lung
  TGI: > 100 µM
LOX IMVI melanoma
  TGI: > 100 µM
RXF 393 renal
  TGI: > 100 µM

## O=c1cc(NNc2cccc3ccccc23)[nH]c(=O)[nH]1
CCRF-CEM leukemia
  TGI: 81.9 µM
SW-620 colon
  TGI: 40 µM
OVCAR-5 ovarian
  TGI: 31.1 µM
PC-3 prostate
  TGI: 27 µM
SK-MEL-28 melanoma
  TGI: 33.3 µM
DU-145 prostate
  TGI: 28.6 µM
NCI-H226 lung
  TGI: 27.9 µM
RPMI-8226 leukemia
  TGI: 33.3 µM
LOX IMVI melanoma
  TGI: 26.7 µM
MOLT-4 leukemia
  TGI: 56.8 µM
RXF 393 renal
  TGI: 31.9 µM

## Cc1ccc(C)c2c1C1CCCCC3(OCCCO3)C21O (stereo unspecified)
CCRF-CEM leukemia
  TGI: > 100 µM
SW-620 colon
  TGI: > 100 µM
OVCAR-5 ovarian
  TGI: > 100 µM
SK-MEL-28 melanoma
  TGI: > 100 µM
NCI-H226 lung
  TGI: > 100 µM
RPMI-8226 leukemia
  TGI: > 100 µM
LOX IMVI melanoma
  TGI: > 100 µM
MOLT-4 leukemia
  TGI: > 100 µM
RXF 393 renal
  TGI: > 100 µM

## CNC(=S)N/N=C/C(C)=N/NC(=S)NC
SW-620 colon
  TGI: > 100 µM
OVCAR-5 ovarian
  TGI: > 100 µM
SK-MEL-28 melanoma
  TGI: > 100 µM
RPMI-8226 leukemia
  TGI: > 100 µM
LOX IMVI melanoma
  TGI: > 100 µM
MOLT-4 leukemia
  TGI: > 100 µM
RXF 393 renal
  TGI: > 100 µM

## Cc1ccc(S(=O)(=O)OC[C@@]2(C)CC[C@]3(C)CC[C@]4(C)C(=C3C2)C=C[C@@H]2[C@@]3(C)CCCNC(C)(C)[C@@H]3CC[C@]24C)cc1
CCRF-CEM leukemia
  GI50: 2140 nM
  TGI: 6.06 µM
SW-620 colon
  GI50: 1780 nM
  TGI: 3.54 µM
OVCAR-5 ovarian
  GI50: 1770 nM
  TGI: 3.21 µM
PC-3 prostate
  GI50: 1530 nM
  TGI: 2.98 µM
SK-MEL-28 melanoma
  GI50: 1780 nM
  TGI: 3.26 µM
DU-145 prostate
  GI50: 1810 nM
  TGI: 3.4 µM
RPMI-8226 leukemia
  GI50: 2120 nM
  TGI: 4.63 µM
RXF 393 renal
  GI50: 1350 nM
  TGI: 2.86 µM

## O=C1Cc2cc3ccccc3nc2-c2ccccc2N1
CCRF-CEM leukemia
  TGI: > 100 µM
SW-620 colon
  TGI: > 100 µM
OVCAR-5 ovarian
  TGI: > 100 µM
PC-3 prostate
  TGI: > 100 µM
SK-MEL-28 melanoma
  TGI: > 100 µM
DU-145 prostate
  TGI: > 100 µM
NCI-H226 lung
  TGI: > 100 µM
LOX IMVI melanoma
  TGI: > 100 µM
MOLT-4 leukemia
  TGI: > 100 µM
RXF 393 renal
  TGI: > 100 µM

## CC(=O)c1csc2c1C(=O)c1ccccc1C2=O
CCRF-CEM leukemia
  TGI: 4.01 µM
SW-620 colon
  TGI: 5.4 µM
OVCAR-5 ovarian
  TGI: 5.45 µM
PC-3 prostate
  TGI: > 100 µM
SK-MEL-28 melanoma
  TGI: 5.07 µM
DU-145 prostate
  TGI: 3.21 µM
NCI-H226 lung
  TGI: 3.42 µM
RPMI-8226 leukemia
  TGI: 89.9 µM
LOX IMVI melanoma
  TGI: 31.3 µM
MOLT-4 leukemia
  TGI: > 66.7 µM
RXF 393 renal
  TGI: 26.7 µM

## COC1OC2COC(=O)c3cc(O)c(O)c(O)c3-c3c(cc(O)c(O)c3O)C(=O)OC2C(O)C1O (stereo unspecified)
CCRF-CEM leukemia
  TGI: > 100 µM
SW-620 colon
  TGI: 57.9 µM
OVCAR-5 ovarian
  TGI: > 100 µM
PC-3 prostate
  TGI: > 100 µM
SK-MEL-28 melanoma
  TGI: > 100 µM
DU-145 prostate
  TGI: > 100 µM
NCI-H226 lung
  TGI: > 100 µM
RPMI-8226 leukemia
  TGI: > 100 µM
LOX IMVI melanoma
  TGI: 60 µM
MOLT-4 leukemia
  TGI: > 100 µM
RXF 393 renal
  TGI: > 100 µM

## CCOc1ccc2nc(NC(=O)C(=O)C3C(=O)C(CC4C(=O)c5ccccc5C4=O)C(=O)CC3(C)C)sc2c1 (stereo unspecified)
CCRF-CEM leukemia
  TGI: 70.1 µM
SW-620 colon
  TGI: > 100 µM
OVCAR-5 ovarian
  TGI: > 100 µM
PC-3 prostate
  TGI: > 100 µM
SK-MEL-28 melanoma
  TGI: > 100 µM
DU-145 prostate
  TGI: > 100 µM
NCI-H226 lung
  TGI: > 100 µM
LOX IMVI melanoma
  TGI: > 100 µM
MOLT-4 leukemia
  TGI: 90.4 µM
RXF 393 renal
  TGI: > 100 µM

## C[N+](C)(CCNc1ccc(NCC[N+](C)(C)Cc2ccc([N+](=O)[O-])cc2)c2c1C(=O)c1c(O)ccc(O)c1C2=O)Cc1ccc([N+](=O)[O-])cc1
CCRF-CEM leukemia
  TGI: > 50 µM
SW-620 colon
  TGI: > 50 µM
OVCAR-5 ovarian
  TGI: > 50 µM
PC-3 prostate
  TGI: > 50 µM
SK-MEL-28 melanoma
  TGI: > 50 µM
DU-145 prostate
  TGI: > 50 µM
RPMI-8226 leukemia
  TGI: > 50 µM
LOX IMVI melanoma
  TGI: > 50 µM
MOLT-4 leukemia
  TGI: > 5 µM
RXF 393 renal
  TGI: > 50 µM

## CN(C)C(=O)C(F)(F)C(c1ccccc1)C1C(=O)N(C)C(=O)N(C)C1=O (stereo unspecified)
CCRF-CEM leukemia
  TGI: > 100 µM
SW-620 colon
  TGI: > 100 µM
OVCAR-5 ovarian
  TGI: > 100 µM
PC-3 prostate
  TGI: > 100 µM
SK-MEL-28 melanoma
  TGI: > 100 µM
DU-145 prostate
  TGI: > 100 µM
NCI-H226 lung
  TGI: > 100 µM
RPMI-8226 leukemia
  TGI: > 100 µM
LOX IMVI melanoma
  TGI: > 100 µM
MOLT-4 leukemia
  TGI: > 100 µM
RXF 393 renal
  TGI: > 100 µM

## CCCCCCCCCCCC1N=C(N)N=C(N)N1c1cccc(Br)c1 (stereo unspecified)
SW-620 colon
  GI50: 837 nM
  TGI: 2.26 µM
OVCAR-5 ovarian
  GI50: 811 nM
  TGI: 2.22 µM
DU-145 prostate
  GI50: 1160 nM
  TGI: 2.42 µM
RPMI-8226 leukemia
  GI50: 1680 nM
  TGI: 4.21 µM

## COC(=O)c1ccccc1CC1Cc2c(C)ccc(C)c2C1=O (stereo unspecified)
CCRF-CEM leukemia
  TGI: 52.8 µM
SW-620 colon
  TGI: > 100 µM
OVCAR-5 ovarian
  TGI: > 100 µM
PC-3 prostate
  TGI: > 100 µM
SK-MEL-28 melanoma
  TGI: > 100 µM
DU-145 prostate
  TGI: > 100 µM
NCI-H226 lung
  TGI: > 100 µM
LOX IMVI melanoma
  TGI: 37.4 µM
MOLT-4 leukemia
  TGI: 45.6 µM
RXF 393 renal
  TGI: 51 µM
